Row | SMILES | melting point [°C]
1 | Cc1cccc2c3c(n(Cc4ccc(F)cc4)c12)CCCC3=O | 154 to 155
2 | CCOC(=O)c1ccc(C2=NOCCS2)cc1 | 69 to 70
3 | CC(=O)N1CCC(C(=O)N(CCCN2CC3CN(C(=O)c4cccnc4N4CCC4)CC3C2)c2ccc(C)c(Cl)c2)CC1 (configuration not stated) | 72.9 to 74
4 | C/C(=C\c1ccc(C(F)(F)F)cc1)C(=O)Nc1cc(Cl)ccc1C(=O)O | 228 to 229
5 | COc1ccc(Cc2sccc2OC2OC(COC(C)=O)C(OC(C)=O)C(OC(C)=O)C2OC(C)=O)cc1 (configuration not stated) | 116 to 118
6 | COc1ccc(-c2cc(=O)n(Cc3ccc(Cl)cc3Cl)nc2-c2ccc(OC)cc2)cc1 | 141
7 | CCOC(=O)COc1ccc(C(=O)CN2CCN(c3ccncc3)CC2)cc1 | 41 to 42
8 | NC(=O)CN1C[C@@H]2CCC[C@@H]2C1=O (relative stereo) | 138 to 141
9 | Oc1ccc(Cl)cc1CCc1ccccn1 | 135 to 137
10 | O=[N+]([O-])c1cc(C(F)(F)F)ccc1NCCO | 74.9
11 | Cc1ccc(CN2CCOCC2)cn1 | 51 to 52
12 | CCn1c(=O)n(CCc2ccc(C)cc2)c(=O)n(C(C)(C)C)c1=O | 64
13 | Cc1oc(-c2ccccc2)nc1COc1nn(Cc2ccc(Oc3ccccc3)cc2)cc1CO | 103 to 104
14 | Cn1c(=O)c2c(ncn2CCCCC#N)n(C)c1=O | 118 to 120
15 | CC(=O)NC(C)C(=O)NCC(=O)O (racemic) | 79 to 82
16 | O=C(NCc1ccccc1)N1C(=O)[C@H](O)[C@@H]1c1ccccc1 | 165 to 168
17 | c1ccc(COc2ccc3c(C45CC6CC(CC(C6)C4)C5)noc3c2)cc1 | 132
18 | CCC(=NOCC=CCl)C1=C(O)CC(c2ccc(NS(C)(=O)=O)cc2)CC1=O (configuration not stated) | 125 to 127
19 | Cn1ncc2c(=O)n3c(nc21)SCCC3 | 179 to 180
20 | CN(C)c1ccc(S(=O)(=O)N2CC(OC(=O)C(C)(C)C)CC2=O)cc1 (configuration not stated) | 117 to 118
21 | CC(C)Oc1ccc(CCCOc2cc(CCC(=O)O)n(-c3ccccc3)n2)c(Oc2ncc(C(F)(F)F)cc2Cl)c1 | 86 to 88
22 | CCCCCOc1ccc(CO)cc1OC(C)=O | 35 to 36
23 | O=C(O)c1cn2c(n1)COc1ccc([N+](=O)[O-])cc1-2 | 310 to 312
24 | Cc1ncccc1Oc1ccc(C(=N)Nc2cc(Cl)cc(NC(=O)C=Cc3ccccc3C(F)(F)F)c2)cc1 | 114 to 119

Row | SMILES | melting point [°C]
25 | COCCSc1cc2c(N3CCc4ccc(Cl)cc43)ncnc2cc1Cl | 104 to 106
26 | CCOC(OCC)c1cc(=O)[nH]c(N)n1 | 198 to 203
27 | Cc1c(F)cc(C(=N)N)c(Oc2ncccc2Oc2cccnc2)c1F | 213 to 214
28 | COC1=C(OC)C(=O)C(CCCCCCCCCCCCCCCCCC(=O)O)=C(C)C1=O | 77 to 79
29 | COc1c(Cl)ccc(-c2nc(C(=O)OC(C)C)c(I)c(N)c2F)c1F | 134 to 135
30 | Cc1nc(-n2ccnc(C)c2=O)sc1C(=O)NCc1ccccc1 | 186 to 187
31 | CN(C)CCN(C)C(=O)Cn1nc(-c2ccccc2O)nc1-c1ccccc1O | 172 to 174
32 | C1=C(c2ccccc2)CC(CN2CCN(c3ccccn3)CC2)CC1 (configuration not stated) | 96 to 98
33 | COc1ccc(-c2[nH]nc3c2C(=O)c2c(NC(=O)Cc4ccc5c(c4)OCO5)cccc2-3)cc1 | 297
34 | CC(=Nc1ccc2c(c1)C(=O)c1ccc(N=C(C)N3CCCCC3)cc1C2=O)N1CCCCC1 | 233 to 235
35 | C=C(C)C(=O)N1CCC(C(=O)O)CC1 | 90 to 93
36 | O=C(CCCCCBr)c1c[nH]c2ccccc12 | 150 to 151
37 | COC(=O)C1=C(C(=O)OC)C2(c3ccc(Cl)cc3)C=CC1O2 (configuration not stated) | 84
38 | Brc1ccc(-c2cn([C@H]3CN4CCC3CC4)nn2)o1 | 144
39 | CSc1nn2c(N)ncnc2c1S(=O)(=O)c1ccccc1 | > 280
40 | Nc1nn(Cc2ccccc2)c2nc(N3CCOCC3)cc(-c3ccccc3)c12 | 147 to 150
41 | CCOC(=O)c1nnc(S)n1Cc1ccc(OC)cc1 | 142 to 144
42 | CS(=O)(=O)Nc1ccc(NC(=O)C(=O)N2CCC(Cc3ccc(F)cc3)CC2)cc1 | 178 to 182
43 | Cc1c(NC(=O)c2ccc(-c3ccc(Cl)cc3)c(F)c2)ccc2cc(CN3CCCC3)cnc12 | 190 to 192
44 | COC(=O)c1ccc(C=Cc2ccc([N+](=O)[O-])c(C#N)c2)cc1 | 266 to 269
45 | Cc1cccc(N2CCN(c3ccc(S(C)(=O)=O)nn3)CC2)c1 | 201
46 | Cc1cc(-c2nnc(C(C)(C)C)o2)ccc1N=CN(C)C | 79 to 80
47 | Cc1c(C(F)(F)F)cnc(O)c1Cl | 204 to 205
48 | CC(=O)C1=CCC2C3CCC4=CC(=O)CCC4(C)C3CCC12C (configuration not stated) | 185 to 190

Row | SMILES | melting point [°C]
49 | CC(C)(C)c1cc(C=O)ccc1O | 142
50 | COc1ccc(Nc2cc(C)nc(SCC#N)n2)cc1 | 128 to 131
51 | CCCc1c(OCCCCCc2ccc(O)c(O)c2)ccc(C(C)=O)c1O | 126 to 127
52 | CC(=O)OCC1CC(Nc2cc(Cl)c(Cl)cc2[N+](=O)[O-])C(OC(C)=O)C1OC(C)=O (configuration not stated) | 128 to 130
53 | CCCCCCCCOc1ccc(-c2ccc(Br)cc2)cc1 | 120
54 | CC(CCc1ccc2c(c1)OCO2)NCC(O)c1cc(C(N)=O)cs1 (configuration not stated) | 112 to 114
55 | C[C@@H](c1ccc(F)cc1)N1CCN(c2cc(Oc3cccc4[nH]c(=O)c(N)nc34)ncn2)CC1 | 294 to 295
56 | N#Cc1ccc2nc[nH]c(=O)c2c1 | 294 to 300
57 | CCOP(=O)(CNCc1cccnc1-c1cc(OC)c(O)c(OC)c1)OCC | 99 to 101
58 | CN(C)c1c([N+](=O)[O-])cc(-c2nc(Cl)c(CC#N)n2Cc2ccccc2)cc1[N+](=O)[O-] | 173 to 175
59 | COCCN1CCN(CCc2ccc(Nc3ncc4c(n3)-c3ccccc3C(c3ccccc3)C4)cc2)CC1 (configuration not stated) | 52 to 54
60 | Nc1cnc(-c2cc(Cl)ccc2Cl)c(N)n1 | 159 to 160
61 | CCCc1c(COc2ccc(Cc3nnn(CCCS(C)(=O)=O)n3)cc2)ccc(C(C)=O)c1O | 89 to 91
62 | O=C1c2ccccc2C(=O)N1Cc1ccc(OCCCCc2ccccc2)cc1 | 106 to 108
63 | CCC(COC)NC(=O)C(C)(C)c1ccc(-c2ccccc2)c(F)c1 (configuration not stated) | 81 to 82
64 | O=C1CN(c2ccc(C(Br)C(Br)c3ccccc3)cc2OCc2ccccc2)S(=O)(=O)N1 (configuration not stated) | 173 to 175
65 | COc1ccc(-c2cc3ccc(C)cc3[nH]2)cc1 | 220
66 | Cc1csc2ccc3c(c4c(n3CCCN(C)C)CCNC4)c12 | 92
67 | Nc1cccc(CN/C=C2\C(=O)NC(=O)c3ccc(Br)cc32)c1 | 214 to 215
68 | Nc1cc(Oc2ccc(C(F)(F)F)cc2Cl)ccc1[N+](=O)[O-] | 86 to 92
69 | CC(C)c1ccc2c(O)c(C(=O)Nc3ccc(OCC(C)(C)C)c(C#N)c3)sc2n1 | 211 to 212
70 | CCOP(=O)(Cc1ccc(C(=O)O)s1)OCC | 77 to 78
71 | CC(C)c1ccccc1Sc1c(O)cc(-c2ccc(OCc3ccccc3)cc2)oc1=O | 163 to 165
72 | CS(=O)(=O)N(Cc1ccncc1)Cc1ccccc1F | 69 to 70

Reference: a melting point compilation (Tetko et al.; mined from patent text by program, amines drawn as free bases though some values may be those of a salt)
